Data set [1] deals with E. coli TEM104. The following applies: checkerboard, strain containing TEM1 / TEM-1; FICI below 0.5 = synergy. As for the experimental part:
To quantify the synergy between these four peptides and penicillin G, we performed a so-called checkerboard assay, which allows us to compare the activity of two test compounds co-incubated (here peptide and a beta-lactam antibiotic), to their individual activities in isolation. […] We evaluated the synergy of the peptides with penicillin G in clinical E. coli isolates carrying the TEM (Fig. 3D) or SHV enzymes (Fig. 3E). […] The list of strains included some that harbored only TEM or SHV, but others contained additional Ambler Class A (CTX-M or OXA) or Class B (VIM and NDM) beta-lactamases.
For the analysis of synergy between the peptides and other antibiotics, a checkerboard assay was performed. Based on the MICs of the selected peptides, a checkerboard assay was designed to define their FICIs (Fractional Inhibitory Concentration Index) in combinations against different clinical isolates[53],[54]. Briefly, a total volume of 100 μL of Mueller–Hinton broth was distributed into each well of the 96-well plates. The first compound (peptide) of the combination was serially diluted vertically (128, 64, 32, 16, 8, 4, 2, 0 μg/mL) while the other drug (Beta-lactam or Kanamycin) was diluted horizontally in a 96-well plate (from 3200 to 3 μg/ mL). The total volume of each microtiter well was inoculated with 100 μL of MHB containing 1 × 10^6 CFU/mL bacteria. The plates were incubated at 37 °C for 24 h under aerobic conditions without shaking. Calculation of the FICI is used to analyze the results of the checkerboard assay by estimating the degree of synergistic effect. FICI is calculated as the sum of the individual fractional inhibitory concentrations (FICs) for each drug (where MIC A and MIC B denote the MIC of each drug alone, and MIC AA+B and MIC BA+B denote the concentrations of A and B in the drug combination). FICI = (MIC AA+B/MIC A) + (MIC BA+B/MIC B). With FICI ≤ 0.5, the combination of antibiotics is considered as a synergistic effect, 0.5 < FICI ≤ 1 indicates additivity, FICI > 1 indicates indifference.

Data set [2] in a line: Thioflavin-T aggregation kinetics and electron microscopy of peptide. It is filed as physicochemical. The following applies: 50 μM peptide with polyphosphate; EM after 24 h incubation at RT. As for the experimental part:
Fig. 4 Aggregation kinetics of TEM and SHV proteins and peptides. A Measurements of the hydrodynamic radius by Dynamic Light Scattering of 50 μM TEM3.2 in buffer alone, or in the presence of LPS or polyphosphate (PolyP). […] C Transmission Electron Micrograph of 50 μM TEM 3.2 incubated for 24 h in the same buffer as A with polyP, negatively stained with 2% (w/v) uranyl acetate. A single representative image is shown. […] Three replicates are shown for each condition. E Aggregation kinetics using pFTAA fluorescence emission of recombinantly purified TEM-1, in the presence of vehicle, or TEM 3.2 peptin, as well as peptin-only control. F Similar as in E, but using an off-target Pept-In, based on an APR sequence of beta-galactosidase. G Similar to E, but now using a previously published off-target Pept-In, based on an APR of HcaB. The plots are the results of a single experiment, all replicates are shown. Source data are provided as a Source Data file.
A DynaPro DLS plate reader instrument (Wyatt, Santa Barbara, CA, USA) equipped with an 830 nm laser source was used to determine the hydrodynamic radius (RH) of the peptide particles. […] The autocorrelation of scattered light intensity at a 32° angle was recorded for 5 s and averaged over 20 recordings to obtain a single data point. […]

Data set [3] has as its target T1, TEM beta-lactamase (Escherichia coli, UniProt P62593).
T1 construct: His-tag (N); TEV cleavage site (N); made in house; host or cells: E. coli BL21 (DE3)
Kind of data set: β-lactamase activity assay (nitrocefin). The class given is biochemical. The following applies: chromogenic substrate nitrocefin, Suppl Fig. 8. As for the experimental part: The beta-lactamase assay procedure is based on the hydrolysis of the substrate Nitrocefin, a chromogenic cephalosporin, which produces a colored product (detectable at OD = 490 nm) that is directly proportional to the quantity of beta-lactamase activity. This experiment was carried out in 96-well black polystyrene flat-bottom microtiter plates (BD Biosciences). In brief, 50 μl of different concentrations of peptides or tazobactam in PBS were added to each well, followed by 50 μl of beta-lactamase protein at a final concentration of 12 ng. The plate was incubated at 37 °C for 1 h. The control heat was heated for 1 h at 95 degrees Celsius. Each well received 5 μl of Nitrocefin at a stock concentration of 0.5 mg/mL Nitrocefin. The hydrolyzed Nitrocefin was identified by absorption at 490 nm, which is proportional to the amount of beta-lactamase activity.

A short description of data set [4]: Tolerability, dose escalation. It is filed as in vivo, female C57BL/6JAX mice. The following applies: mice; for Tox beheviour Sub: subcutaneous. As for the experimental part:
We also performed a tolerability study using a dose escalation method by administering the peptide at 2, 5, 10, 15, and 20 mg/kg via different parenteral routes: intravenous (IV), intraperitoneal (IP), and subcutaneous (SC) in female C57BL/6JAX mice, aged 8–10 weeks (Suppl Table 4). […] Vehicle alone (0.9% NaCl) was also administered (IV). After 24 h the animals were sacrificed and the bacterial load in the bladder, kidney, and ureter was quantified by determining the number of colony-forming units (CFU) per mL of tissue extract (Fig. 7E–G). […]

T1 sequence (P62593 24-286 limits assumed): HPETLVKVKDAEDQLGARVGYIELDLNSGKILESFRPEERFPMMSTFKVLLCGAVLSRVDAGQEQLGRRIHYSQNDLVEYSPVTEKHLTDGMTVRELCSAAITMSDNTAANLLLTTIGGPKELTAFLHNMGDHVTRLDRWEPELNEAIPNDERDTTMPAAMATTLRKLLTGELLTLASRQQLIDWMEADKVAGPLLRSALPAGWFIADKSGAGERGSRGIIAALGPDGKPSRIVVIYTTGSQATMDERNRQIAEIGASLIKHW

In the case of Ac-RLTAFLHNRRPRLTAFLRQRR-NH2 [TEM3.2], the “synergy with penicillin G (in words)” value in data set [1] is recorded as “showed synergy in both strains”. Moreover, the “Thioflavin T binding and Transmission Electron Microscopy (in words)” value in data set [2] is reported as “amyloid-like aggregation in the presence of polyphosphate”. Further, the “effect on beta-lactamase enzymatic function (in words)” value in data set [3] is “loss of function of the enzymatic function of the beta-lactamase”. For the same substance, the “Tox beheviour IP” value in data set [4] (2 mg/Kg), in data set [4] (5 mg/Kg), in data set [4] (10 mg/Kg), in data set [4] (15 mg/Kg) and in data set [4] (20 mg/Kg) was “no sign of tox” in each case. The “Tox beheviour IV” value in data set [4] (2 mg/Kg), in data set [4] (5 mg/Kg), in data set [4] (10 mg/Kg), in data set [4] (15 mg/Kg) and in data set [4] (20 mg/Kg) was “no sign of tox” throughout. The “Tox beheviour Sub” value in data set [4] (2 mg/Kg), in data set [4] (5 mg/Kg), in data set [4] (10 mg/Kg), in data set [4] (15 mg/Kg) and in data set [4] (20 mg/Kg) was “no sign of tox” each time.

Source of the values: paper PMC10492782, “Exploiting the aggregation propensity of beta-lactamases to design inhibitors that induce enzyme misfolding” (Nature Communications, 2023).
